# Data: patent publication US20210077625A1, “RAY TRACING TECHNIQUE FOR WIRELESS CHANNEL MEASUREMENTS” (Cohere Technologies, Inc., priority 2017, published 2021)
# Columns and labels:
# [1] = test system: LM36R human melanoma xenograft; test: Tumor growth of vemurafenib-resistant LM36R melanoma xenograft in nude mice; format: in vivo, mouse; conditions: nude male mice, 5 mg of drug/kg per injection, bi-weekly tail vein, 4 weeks, n=5 per group; p-value 0.048 at week 4
# Experimental: Vemurafenib-resistant LM36R human melanoma cells were inoculated (5.0×10^5 cells/mouse) into the right flank of athymic Nu/Nu nude male mice (Cr1:NU-Foxn1^nu strain code 088)) n=5 per group, and progression of tumor was recorded using the volume model of length×(width^2)×0.52. Mice were split into four groups consisting of a control (empty HANP), free Tris DBA-Pd, HANP with Tris DBA-Pd, and HANP with Tris DBA-Pd and αIGF1R antibody. Free Tris DBA-Pd was first dissolved in DMSO and then mixed with Kolliphor EL™. At last, the mixture was diluted by H2O before injection at concentration of 1 mg/mL of DBA. The ratio of DMSO, Kolliphor EL™ and H2O was controlled as 1:2:7 (v/v). The treatments were administered through bi-weekly tail vein injections over the course of 4 weeks (5 mg of drug/kg per injection). Tumor samples were analyzed for CD44 (hyaluronate receptor) expression by immunohistochemistry.
# LM36R xenograft tumor = test: Gene array / microarray RNA analysis of LM36R xenograft tumors; format: in vivo
# Experimental: Gene array was performed on all tumors. […] By varying the delivery process of a single drug, one might be able to prevent resistance.
# RNA Extraction and QC: RNA was extracted using the Qiagen miRNEasy™ kit with on column DNAse treatment. Tissue was lysed and homogenized in Qiazol™ with a rotor-stator probe homogenizer for 40 seconds or until fully disrupted (1 ml Qiazol™ per 100 mg of tissue). RNA was eluted in 50 ul nuclease free water. One microliter was used to determine OD (optical density) values on a Nanodrop 1000. One microliter was used to assess sample profiles on the Agilent 2100 using the RNA 6000 Nano assay. Total RNA (250 ng) was amplified and labeled using the ThermoFisher Scientific Illuina™ TotalPrep™ RNA Amplification kit. Labeled cRNA was hybridized to Illumina HT12™ bead array. Image acquisition and data extraction were performed.
# [2] = Dispersion, solubility and stability in water, FBS, cell culture media; format: physicochemical; conditions: for solubility (general statement): water / not specified
# [3] = biological target: T1, N-myristoyltransferase 1 (NMT1) (Homo sapiens, UniProt P30419); conditions: reported in literature; cited from earlier work
# T1 sequence (P30419 1-496): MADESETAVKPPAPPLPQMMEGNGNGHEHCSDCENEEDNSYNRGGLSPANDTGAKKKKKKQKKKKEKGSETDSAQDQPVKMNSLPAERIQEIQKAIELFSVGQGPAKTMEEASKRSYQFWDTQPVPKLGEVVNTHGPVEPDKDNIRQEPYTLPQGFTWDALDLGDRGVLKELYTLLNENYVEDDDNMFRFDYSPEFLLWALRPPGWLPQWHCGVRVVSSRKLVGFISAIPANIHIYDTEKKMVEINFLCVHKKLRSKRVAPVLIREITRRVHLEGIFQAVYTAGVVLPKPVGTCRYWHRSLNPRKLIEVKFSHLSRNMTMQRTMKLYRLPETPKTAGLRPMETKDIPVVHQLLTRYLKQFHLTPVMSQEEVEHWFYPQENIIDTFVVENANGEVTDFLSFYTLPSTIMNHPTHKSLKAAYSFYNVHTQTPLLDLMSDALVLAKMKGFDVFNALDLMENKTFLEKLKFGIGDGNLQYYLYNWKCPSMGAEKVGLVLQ
# melanoma = conditions: reported in literature; cited from earlier work
# [4] = at 25° C.; cited from earlier work
Compound,inhibition of LM36R tumor growth (tumor volume) [1],SCG2 (secretogranin 2) gene expression (LM36R xenograft tumor),solubility (general statement) [2],solubility (general statement) ([2]; listed as Tris (dibenzylideneacetone) dipalladium),"behaviour in water, FBS, and cell culture media ([2]; water, FBS, cell culture media)",activity against the enzyme N-myristoyltransferase 1 [3],"efficacy against melanoma in vitro and preclinical models of pancreatic cancer, chronic lymphocytic leukemia, multiple myeloma (melanoma)",percent solubility in water by weight [4]
Tris (dibenzylideneacetone) dipalladium [Tris DBA-Pd],showed efficacy,downregulated,Water-insoluble,poor solubility,immediately precipitated,activity,efficacious,
CCCCCCCC [octane],,,,,,,,0.63×10^−4 % w/w
